The record followed here is patent US20100311714A1, “1H-IMIDAZO[4,5-c]QUINOLINONE COMPOUNDS” (priority 2009, published 2010).

In data set [1] the target is T1, mTOR (Homo sapiens, UniProt P42345).
T1 construct: purchased Invitrogen Corporation (Carlsbad/Calif., USA) PV4753
Briefly: Biochemical assay for m-TOR by TR-FRET. Conditions: read-out: EPK_mTOR/IC50. The method, boiled down: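 mTOR (0.5 nM) phosphorylates GFP-4EBP1 (400 nM) with 8 μM ATP at rt in 50 mM HEPES pH 7.5, 10 mM MnCl2, 50 mM NaCl, 1 mM EGTA, 1 mM DTT; compounds 0.003–10 μM final. EDTA stop with Tb-anti-p4EBP1[pT46] antibody (0.5 nM); TR-FRET read after 15 min against no-enzyme and vehicle controls.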
(In general: In TR-FRET formats the signal depends on donor and acceptor labels being close together.)

The subject of data set [2] is PKB Ser473 phosphorylation in Rat1-myr-HA-p110 delta cells. The data set is described as follows: Reverse protein array, PKB Ser473 phosphorylation in Rat1-myr-HA-p110 delta cells. It counts as cell-based. Conditions: Rattus norvegicus, 0.5 h, 30 minutes compound incubation, read-out: p-PKB/IC50_delta.
Data set [3] in a line: Parallel Artificial Membrane Permeability Assay (PAMPA) at pH 6.8. It counts as physicochemical. The method, boiled down: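 PAMPA permeability measured at pH 6.8 following the Wohnsland and Faller method; value reported as log Pe.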
(In general: The PAMPA barrier holds no transporters, so it reflects passive diffusion.)

T1 sequence (P42345 1360-2549 limits assumed): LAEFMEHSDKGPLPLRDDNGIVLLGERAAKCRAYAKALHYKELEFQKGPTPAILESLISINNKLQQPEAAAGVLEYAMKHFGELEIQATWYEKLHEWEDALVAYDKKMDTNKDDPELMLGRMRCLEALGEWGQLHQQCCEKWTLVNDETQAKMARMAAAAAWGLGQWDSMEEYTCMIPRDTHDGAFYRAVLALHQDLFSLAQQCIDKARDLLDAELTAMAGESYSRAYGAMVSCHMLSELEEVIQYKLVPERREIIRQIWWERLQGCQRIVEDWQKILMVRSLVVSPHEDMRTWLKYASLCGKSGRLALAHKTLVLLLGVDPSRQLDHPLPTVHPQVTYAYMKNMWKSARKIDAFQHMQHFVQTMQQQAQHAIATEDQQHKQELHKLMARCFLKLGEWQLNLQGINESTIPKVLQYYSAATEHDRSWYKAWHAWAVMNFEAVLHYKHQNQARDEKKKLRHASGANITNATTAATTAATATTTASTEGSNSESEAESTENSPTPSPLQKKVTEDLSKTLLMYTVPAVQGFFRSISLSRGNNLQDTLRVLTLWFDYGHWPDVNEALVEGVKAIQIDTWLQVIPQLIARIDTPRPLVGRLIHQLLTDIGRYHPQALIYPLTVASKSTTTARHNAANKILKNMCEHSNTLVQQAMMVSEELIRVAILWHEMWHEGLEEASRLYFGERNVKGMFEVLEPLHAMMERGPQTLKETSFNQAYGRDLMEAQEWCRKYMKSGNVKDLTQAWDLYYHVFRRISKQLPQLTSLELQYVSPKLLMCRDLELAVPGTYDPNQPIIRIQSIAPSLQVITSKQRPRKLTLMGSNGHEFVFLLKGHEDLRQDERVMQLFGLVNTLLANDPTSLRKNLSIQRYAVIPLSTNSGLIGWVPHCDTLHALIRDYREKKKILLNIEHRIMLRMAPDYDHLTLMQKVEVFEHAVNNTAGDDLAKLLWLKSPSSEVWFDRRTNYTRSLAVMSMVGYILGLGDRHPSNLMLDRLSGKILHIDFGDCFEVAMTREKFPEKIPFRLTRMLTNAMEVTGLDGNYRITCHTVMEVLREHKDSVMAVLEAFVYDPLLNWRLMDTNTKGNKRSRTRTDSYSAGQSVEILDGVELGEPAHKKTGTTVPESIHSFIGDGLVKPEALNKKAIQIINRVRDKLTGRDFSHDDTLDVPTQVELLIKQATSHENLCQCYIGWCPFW

`CNc1ncc(-c2ccc3ncc4c(c3c2)n(-c2ccc(N3CCC(O)C3)nc2C)c(=O)n4C)cn1` (stereo not drawn) [Example 27.2, 1-[6-(3-Hydroxy-pyrrolidin-1-yl)-2-methyl-pyridin-3-yl]-3-methyl-8-(2-methylamino-pyrimidin-5-yl)-1,3-dihydro-imidazo[4,5-c]quinolin-2-one]: the IC50 stood at 0.006 µM in data set [1] and 0.0207 µM in data set [2]. The “HT-Perm logPe pH6.8” value in data set [3] is −5.1.

On to `COC1CCN(c2ccc(-n3c(=O)n(C)c4cnc5ccc(-c6cncc(C(C)(C)O)c6)cc5c43)c(C)n2)C1` (stereo not drawn) [Example 28.1, 8-[5-(1-Hydroxy-1-methyl-ethyl)-pyridin-3-yl]-1-[6-(3-methoxy-pyrrolidin-1-yl)-2-methyl-pyridin-3-yl]-3-methyl-1,3-dihydro-imidazo[4,5-c]quinolin-2-one], for which the IC50 in data set [1] amounted to 0.022 µM; in data set [2] it was 0.0399 µM. Besides, the “HT-Perm logPe pH6.8” value in data set [3] is on record as −5.1.

Consider `CCNc1cc(-c2ccc3ncc4c(c3c2)n(-c2ccc(N3CC(O)C3)nc2C)c(=O)n4C)cnc1CO` [Example 29.2, 8-(5-Ethylamino-6-hydroxymethyl-pyridin-3-yl)-1-[6-(3-hydroxy-azetidin-1-yl)-2-methyl-pyridin-3-yl]-3-methyl-1,3-dihydro-imidazo[4,5-c]quinolin-2-one], for which the IC50 in data set [1] is 0.005 µM; in data set [2] it was 0.0397 µM. Moreover, in data set [3], the “HT-Perm logPe pH6.8” value is −7.1.

With `CNc1ncc(-c2ccc3ncc4c(c3c2)n(-c2ccc(N3CC(O)C3)nc2C)c(=O)n4C)cc1F` [Example 29.3, 8-(5-Fluoro-6-methylamino-pyridin-3-yl)-1-[6-(3-hydroxy-azetidin-1-yl)-2-methyl-pyridin-3-yl]-3-methyl-1,3-dihydro-imidazo[4,5-c]quinolin-2-one], the figures for the IC50 in data set [1] and in data set [2] were 0.008 µM and 0.0653 µM, respectively. For the same compound, the “HT-Perm logPe pH6.8” value in data set [3] is on record as −5.1.

With `CNc1ncc(-c2ccc3ncc4c(c3c2)n(-c2ccc(N3CC(O)C3)nc2C)c(=O)n4C)cc1C(F)(F)F` [Example 29.4, 1-[6-(3-Hydroxy-azetidin-1-yl)-2-methyl-pyridin-3-yl]-3-methyl-8-(6-methylamino-5-trifluoromethyl-pyridin-3-yl)-1,3-dihydro-imidazo[4,5-c]quinolin-2-one], the IC50 in data set [1] stood at 0.012 µM; in data set [2], 0.0183 µM. In data set [3], the “HT-Perm logPe pH6.8” value is −5.

With `COc1cc(-c2ccc3ncc4c(c3c2)n(-c2ccc(N3CC(O)C3)nc2C)c(=O)n4C)cnc1CO` [Example 29.5, 1-[6-(3-Hydroxy-azetidin-1-yl)-2-methyl-pyridin-3-yl]-8-(6-hydroxymethyl-5-methoxy-pyridin-3-yl)-3-methyl-1,3-dihydro-imidazo[4,5-c]quinolin-2-one], the IC50 in data set [1] stood at 0.061 µM; in data set [2] it was 0.401 µM. The “HT-Perm logPe pH6.8” value in data set [3] was −7.8.

In the case of `CNc1ncc(-c2ccc3ncc4c(c3c2)n(-c2ccc(C(C)(C)O)nc2C)c(=O)n4C)cc1F` [Example 31.1, 8-(5-Fluoro-6-methylamino-pyridin-3-yl)-1-[6-(1-hydroxy-1-methyl-ethyl)-2-methyl-pyridin-3-yl]-3-methyl-1,3-dihydro-imidazo[4,5-c]quinolin-2-one], the IC50 amounted to 0.021 µM in data set [1] and 0.036 µM in data set [2]. Besides, in data set [3], the “HT-Perm logPe pH6.8” value is −4.1.

Take `CNc1ncc(-c2ccc3ncc4c(c3c2)n(-c2ccc(N3CC[C@H](O)C3)nc2C)c(=O)n4C)cn1` [Example 32.1, 1-[6-((S)-3-Hydroxy-pyrrolidin-1-yl)-2-methyl-pyridin-3-yl]-3-methyl-8-(2-methylamino-pyrimidin-5-yl)-1,3-dihydro-imidazo[4,5-c]quinolin-2-one]: the IC50 in data set [1] amounted to 0.004 µM; in data set [2], 0.0177 µM. Also, the “HT-Perm logPe pH6.8” value in data set [3] is given as −5.

As for `CNc1ncc(-c2ccc3ncc4c(c3c2)n(-c2ccc(N3CC[C@H](O)C3)nc2C)c(=O)n4C)cc1F` [Example 32.2, 8-(5-Fluoro-6-methylamino-pyridin-3-yl)-1-[6-((S)-3-hydroxy-pyrrolidin-1-yl)-2-methyl-pyridin-3-yl]-3-methyl-1,3-dihydro-imidazo[4,5-c]quinolin-2-one], the figures for the IC50 in data set [1] and in data set [2] were 0.01 µM and 0.0305 µM, respectively. In data set [3], the “HT-Perm logPe pH6.8” value is given as −4.8.

For the compound `COc1ncc(-c2ccc3ncc4c(c3c2)n(-c2ccc(N3CC[C@H](O)C3)nc2C)c(=O)n4C)c(OC)n1` [Example 32.3, 8-(2,4-Dimethoxy-pyrimidin-5-yl)-1-[6-((S)-3-hydroxy-pyrrolidin-1-yl)-2-methyl-pyridin-3-yl]-3-methyl-1,3-dihydro-imidazo[4,5-c]quinolin-2-one], the results for the IC50 in data set [1] and in data set [2] were 0.015 µM and 0.059 µM, respectively. Besides, the “HT-Perm logPe pH6.8” value in data set [3] is −5.3.

`CNc1ncc(-c2ccc3ncc4c(c3c2)n(-c2ccc(N3CC[C@H](O)C3)nc2C)c(=O)n4C)cc1C(F)(F)F` [Example 32.5, 1-[6-((S)-3-Hydroxy-pyrrolidin-1-yl)-2-methyl-pyridin-3-yl]-3-methyl-8-(6-methylamino-5-trifluoromethyl-pyridin-3-yl)-1,3-dihydro-imidazo[4,5-c]quinolin-2-one]: the IC50 in data set [1] stood at 0.009 µM; in data set [2], 0.016 µM. In data set [3], the “HT-Perm logPe pH6.8” value was −4.5.

`Cc1nc(N2CC[C@H](O)C2)ccc1-n1c(=O)n(C)c2cnc3ccc(-c4cncc(OC(C)C)c4)cc3c21` [Example 32.8, 1-[6-((S)-3-Hydroxy-pyrrolidin-1-yl)-2-methyl-pyridin-3-yl]-8-(5-isopropoxy-pyridin-3-yl)-3-methyl-1,3-dihydro-imidazo[4,5-c]quinolin-2-one]: the IC50 in data set [1] amounted to 0.0425 µM; in data set [2] it was 0.0953 µM. For the same compound, the “HT-Perm logPe pH6.8” value in data set [3] is −3.8.

With `Cc1nc(C(F)(F)F)ccc1-n1c(=O)n(C)c2cnc3ccc(-c4cncc(C(C)(C)O)c4)cc3c21` [Example 33.1, 8-[5-(1-Hydroxy-1-methyl-ethyl)-pyridin-3-yl]-3-methyl-1-(2-methyl-6-trifluoromethyl-pyridin-3-yl)-1,3-dihydro-imidazo[4,5-c]quinolin-2-one], the IC50 in data set [1] stood at 0.092 µM; in data set [2], 0.043 µM. The “HT-Perm logPe pH6.8” value in data set [3] is −4.5.

With `CCNc1ncc(-c2ccc3ncc4c(c3c2)n(-c2ccc(N3CC[C@@H](O)C3)nc2C)c(=O)n4C)cc1C(F)(F)F` [Example 34.2, 8-(6-Ethylamino-5-trifluoromethyl-pyridin-3-yl)-1-[6-((R)-3-hydroxy-pyrrolidin-1-yl)-2-methyl-pyridin-3-yl]-3-methyl-1,3-dihydro-imidazo[4,5-c]quinolin-2-one], the IC50 in data set [1] is 0.036 µM; in data set [2], 0.0399 µM. Also, the “HT-Perm logPe pH6.8” value in data set [3] was −3.9.

As to `CCNc1ncc(-c2ccc3ncc4c(c3c2)n(-c2ccc(N3CC[C@@H](O)C3)nc2C)c(=O)n4C)cc1COCC` [Example 34.4, 8-(5-Ethoxymethyl-6-ethylamino-pyridin-3-yl)-1-[6-((R)-3-hydroxy-pyrrolidin-1-yl)-2-methyl-pyridin-3-yl]-3-methyl-1,3-dihydro-imidazo[4,5-c]quinolin-2-one], the IC50 in data set [1] was determined as 0.214 µM; in data set [2], 0.253 µM. Further, in data set [3], the “HT-Perm logPe pH6.8” value is recorded as −4.1.
